Source: patent US8729279B2, “Agent for promoting osteoblast differentiation, pharmaceutical composition for promoting bone formation, and food for special dietary use containing auraptene analog as active ingredient” (Erina Co., Inc., priority 2010, dated 2014)

Columns and labels:
MC3T3-E1 cells [1] = test: Expression of genes related to osteoblast differentiation, real-time RT-PCR; format: cell-based, mouse; conditions: compared with control
Protocol: The effects on the expression of various genes related to osteoblast differentiation were analyzed using the real-time RT-PCR method.
MC3T3-E1 cells were plated in each well of a 6-well plate (Greiner) at a concentration of 1.5×10^5 cells/well and cultured in the same manner as above. […] After incubation, the culture medium was removed and the cells were washed with PBS. Thereafter, “ISOGEN” (trade name, Wako Pure Chemical Industries, Ltd.) was added in an amount of 1 ml/well and the cells were collected. RNA purification was conducted according to the protocol described in the package insert of “ISOGEN”.
Reverse transcription was performed using “PrimeScript RT-PCR Kit” (trade name, TaKaRa) with 2 μg of purified RNA according to the protocol described in the package insert, thereby synthesizing the cDNA sample.
Real-time PCR was performed using “FastStart Universal SYBR Green Master (Rox)” (trade name, Roche) according to the protocol described in the package insert under the following conditions: incubation at 50° C. for 2 min and at 95° C. for 10 min, followed by 50 cycles of 15 sec at 95° C. and 1 min at 60° C. Data were analyzed with “ABI PRISM 7300 sequence detection system” (trade name, Applied Biosystems).
Primers used were as described in the following Table 2.
Data analysis was performed as follows using β-actin as an endogenous control gene by the comparative Ct method.
Δ Ct=(Ct of target gene)−(Ct of endogenous control gene)
ΔΔ Ct=(Δ Ct of target sample)−(Δ Ct of reference sample)
Relative expression level of target gene of target sample to that of reference sample=2 (^−ΔΔ^Ct)

MC3T3-E1 cells [2] = test: Effect on osteoblast proliferation (MTT); format: cell-based, mouse; conditions: compound 1, 3, 10 or 30 μM, 3 days, FIG. 1
Protocol: The effect on osteoblast proliferation was determined by the following method.
MC3T3-E1 cells were suspended in α-MEM and plated on each well of a 96-well microplate at a concentration of 2×10^3 cells/well. After overnight incubation in 10% fetal bovine serum (FBS)-containing α-MEM under a condition of 37° C. and 5% CO2, the culture medium was replaced with 10% FBS-containing α-MEM containing a compound at a concentration of 1, 3, 10 or 30 μM and cultured for 3 days. The cells cultured in the same manner using the medium containing the same amount of solvent only were used as a control.
Added was 3-(4,5-Dimethylthiazol-2-yl)-2,5-diphenyltetrazolium bromide (MTT) (5 mg/ml in PBS) in one-tenth amount of the culture medium 2 hours before the completion of incubation. After 2-hour cultivation, the medium was removed, formazan formed by viable cells was dissolved in DMSO and the absorbance at 570 nm (reference wavelength of 630 nm) was measured with a plate reader. The relative cell numbers were determined by calculating the values taking the control as 100 (average plus or minus standard deviation of 4 wells or more; the same hereinafter).

MC3T3-E1 cells [3] = test: Initial osteoblast differentiation, alkaline phosphatase (ALP) activity; format: cell-based, mouse; conditions: compound 1-100 μM, 6 days; FIG. 2 solid bars
Protocol: (§1) MC3T3-E1 cells which are mouse pre-osteoblastic cells were suspended in α-MEM and plated on each well of a 96-well microplate at a concentration of 5×10^3 cells/well. After 2-day pre-incubation in 10% FBS-containing α-MEM under a condition of 37° C. and 5% CO2, the culture medium was replaced with 10% FBS-containing α-MEM containing a compound at a concentration of 1, 3, 10, 30 or 100 μM and the cells were cultured for 6 days. During the incubation, the culture medium was replaced once in every 3 days. The cells cultured in the same manner using the medium without coumarin compounds were used as a control.
(§2) In addition, the activity of alkaline phosphatase (ALP), a marker enzyme of initial osteoblast differentiation, was measured by the following method. After incubation, the cells were fixed with cold methanol, and the dishes were dried. 100 μl of buffer of pH 8.5 containing 2 mM magnesium chloride and 100 mM Tris-HCl, with 6.7 mM p-nitrophenylphosphate as a substrate, was dispensed in each well and allowed to react at 37° C. for 30 minutes. Then, 100 μl of 0.1 N sodium hydroxide was added to terminate the reaction, followed by measurement with a plate reader of the absorbance at 405 nm, which was determined to be the ALP activity. The value was calculated by taking the control as 100.

RAW264 cells [4] = test: Cell number (MTT) in osteoclast differentiation culture; format: cell-based, mouse; conditions: RANKL 50 ng/ml, 3 days, FIG. 7 open bars
Protocol: (§3) RAW264 cells were suspended in α-MEM and plated in a 96-well microplate at a concentration of 3×10^3 cells/well. The compounds of the present invention at each concentration and the osteoclast differentiation-inducing factor (RANKL) were added at 50 ng/ml and the cells were cultured for 3 days in an incubator at 37° C. and 5% CO2. After incubation, the cells were fixed with a 10% formalin solution and refixed with 100% ethanol.
In addition, after similarly cultured, the cells were counted by a conventional method using a MTT reagent, and the value calculated by taking the control as 100 was shown.

MC3T3-E1 cells [5] = test: Cell number (MTT) in initial osteoblast differentiation culture; format: cell-based, mouse; conditions: compound 1-100 μM, 6 days, FIG. 2 open bars
Protocol: as §1
At the end of incubation, the cell number was measured by the same method as above using a MTT reagent and the value was calculated by taking the control as 100.

RAW264 cells [6] = test: Osteoclast differentiation, TRAP activity; format: cell-based, mouse; conditions: RANKL 50 ng/ml, 3 days; FIG. 7 solid bars
Protocol: RAW264 cells (mouse monocyte/macrophage cell line, cell No. RCB0535) were purchased from RIKEN Cell Bank. The osteoclast differentiation-inducing factor (RANKL) was obtained from Wako Pure Chemical Industries, Ltd. Others used were the same as above.
as §3
After the dishes were dried, as an index of differentiation, the activity of tartrate-resistant acid phosphatase (TRAP), a marker enzyme of osteoclasts, was measured by the following method.
For measurement of the TRAP activity, a buffer containing 10 mM tartrate and 50 mM citrate of pH 4.6, with 3.7 mM p-nitrophenylphosphate as a substrate, was used. […] Thereafter, 100 μl of 0.1 N sodium hydroxide was added to terminate the reaction, followed by measurement of the absorbance at 405 nm with a plate reader. Each absorbance was determined to be the TRAP activity, and the value calculated by taking control as 100 was shown.

MC3T3-E1 cells [7] = test: Osteoblast calcification, alizarin red S staining; format: cell-based, mouse; conditions: compared with control
Protocol: 3. Effects on Osteoblast Calcification MC3T3-E1 cells were suspended in α-MEM and plated in each well of a 96-well microplate at a concentration of 5×10^3 cells/well and pre-incubated for 2 days in 10% FBS-containing α-MEM under a condition of 37° C. and 5% CO2. Thereafter, the culture medium was replaced with 10% FBS-containing α-MEM containing a compound at a concentration of 1, 3, 10 or 30 μM, 50 μg/ml ascorbic acid and 10 mM β-glycerophosphoric acid, and the cells were cultured for 10 days. During the incubation, the culture medium was changed once in every 3 or 4 days.
After incubation, the cells were fixed with 70% ethanol, the dishes were dried, and calcium deposits were stained with a 1% alizarin red S solution. The image of the stained plate was obtained using a scanner. In addition, the degree of stain (degree of calcification) was evaluated by naked eyes.

MC3T3-E1 cells [8] = test: Comparison with BMP-2 and effect of BMP signal inhibitors on ALP activity; format: cell-based, mouse; conditions: 6 days
Protocol: as §2
Upon the addition of the sample, the cells were cultured for 6 days in the presence or absence of 10 ng/ml Noggin, a BMP inhibitor, or 1 μM Dorsomorphin, an inhibitor of type I BMP receptor (ALK) (the above concentrations are the final concentrations), and the ALP activities were measured in the same manner as above.

[9] = tested on: Postmenopausal osteoporosis model mice; test: Bone formation-promoting effect in vivo, ovariectomized mice, femur pQCT; set-up: species or system mouse; conditions: OVX mice, 50 mg/kg/day oral, 30+30 days, versus OVX-Con
Protocol: Postmenopausal osteoporosis model mice were prepared by ovariectomy and test compounds were administrated to the mice with decreased bone mass, to examine the effects on bone formation in vivo level.
Slc; ddY mice (4 week-old, female) were purchased from Chubu Kagaku Shizai Co., Ltd. After 2 days, ovariectomy (“OVX”) or sham operation (“Sham”) was performed under Nembutal anesthesia. After the mice were bred for 1 month in order to decrease bone mass due to the progression in bone resorption, a part of mice in each group (OVX: N=5, Sham: N=3) were killed to collect the femurs. The rest of mice in the ovariectomy (“OVX”) group were divided into two groups: solvent administration group (“OVX-Con”: N=6) and auraptene administration group (50 mg/kg/day, oral administration, “OVX-AUR”: N=6) and bred for another month together with the sham operation group (Sham-Con: N=6). Thereafter, the mice were killed to collect the femurs.
The bone mineral content density and the like of the collected femurs were measured by means of pQCT (peripheral Quantitative Computed Tomography) using a bone density measuring apparatus (trade name “XCT Research SA+”, manufactured by Stratec Medizintechnik GmbH).

## CC(C)=CCC/C(C)=C/COc1ccc2ccc(=O)oc2c1 [auraptene, 2H-1-benzopyran-2-one, 7-[[(2E)-3,7-dimethyl-2,6-octadiene-1-yl]oxy]-]
MC3T3-E1 cells [1]; auraptene 30 μM or BMP-2 50 ng/ml, FIG. 5A
  expression of ALP gene: increased
MC3T3-E1 cells [1]; auraptene 30 μM or BMP-2 50 ng/ml, FIG. 5B
  expression of osteocalcin gene: increased
MC3T3-E1 cells [1]; auraptene 30 μM or BMP-2 50 ng/ml, FIG. 5C
  expression of Runx 2 gene: increased
MC3T3-E1 cells [1]; auraptene 30 μM or BMP-2 50 ng/ml, FIG. 5D
  expression of Osterix gene: increased
MC3T3-E1 cells [1]; auraptene 30 μM, FIG. 5E
  expression of BMP-2 gene: increased
MC3T3-E1 cells [1]; auraptene 30 μM, FIG. 5F
  expression of BMP-4 gene: increased
MC3T3-E1 cells [2]
  cell number of MC3T3-E1 cells (relative, control as 100): little change in cell number
MC3T3-E1 cells [3]
  ALP activity (control as 100): increased in a concentration-dependent manner
RAW264 cells [4]
  cell number of RAW264 cells (control as 100): did not show a significant influence
MC3T3-E1 cells [5]
  cell viability of MC3T3-E1 cells (control as 100): little influence on cell viability
RAW264 cells [6]
  TRAP activity as an index of osteoclast differentiation: do not affect osteoclast differentiation
MC3T3-E1 cells [7]
  calcified portions stained red: remarkably increased compared with control
MC3T3-E1 cells [8]; Dorsomorphin 1 μM, auraptene 30 μM or BMP-2 25 ng/ml
  effect of promoting ALP activity in presence of Dorsomorphin: diminished
MC3T3-E1 cells [8]; Noggin 10 ng/ml, auraptene 30 μM or BMP-2 25 ng/ml
  effect of promoting ALP activity in presence of Noggin: diminished
MC3T3-E1 cells [8]; auraptene 30 μM versus BMP-2 25 ng/ml, FIG. 4
  effect of promoting ALP activity: equivalent to or more than that with BMP-2 (25 ng/ml)
[9]; FIG. 6A
  trabecular bone mineral density: tended to be high
[9]; FIG. 6B
  total bone mineral density: tended to be high
[9]; FIG. 6C
  cortical bone periosteal circumference: tended to be long
[9]; FIG. 6D
  cortical bone endosteal circumference: tended to be long
